Test results as given in US8957087B2, “Heterocyclic substituted acardite derivate and application thereof” (Jiangsu Provincial Institute of Materia Medica Co., Ltd., priority 2009, dated 2015).
Where two headings read alike, the source gives them in different places. Marks after values point to notes of the source that are not given here.

Tests used:
[1] = tested on: renal carcinoma cell line GCR-1 transplanted tumor; assay type: in vivo, BALB/cA nude mice; settings: BALB/cA nude mice; 60 mg/kg, 6 times every week for 3 weeks; Sorafenib oral 60 mg/kg
In short: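 Female BALB/cA nude mice (18–22 g) bearing GCR-1 renal carcinoma xenografts, 6 per treated group, 12 saline controls. Drug given at 60 mg/kg, 6 times weekly for 3 weeks, then one week of observation; tumor inhibition rate reported.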

[2] = tested on: human lung cancer cell strain A549; assay: MTT assay, inhibition of growth of human lung cancer cell strain A549; assay type: cell-based
In short: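 A549 cells grown in F12 with 10% FBS; growth read by MTT, inhibition rate from blank-corrected OD of drug wells versus control wells.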

[3] = tested on: Human colon cancer HT-29 transplantable tumor; assay: Human colon cancer HT-29 transplantable tumor in nude mice; settings: for Relative tumor reproduction rate T/C (%): HT-29 in nude mice; for Relative tumor reproduction rate T/C (%) / RTV: 60 mg/kg ig 9 times; for RTV: relative tumor volume; for TV d0: tumor volume d0, 60 mg/kg; for TV d13: tumor volume d13, 60 mg/kg ig 9 times
[4] = tested on: human high-metastic lung cancer cell 95D; assay: Inhibition of human high-metastic lung cancer cell 95D migration (Boyden Chamber Transwell); assay type: cell-based; settings: Final concentration 1 x 1.0*10^(−5) mol/L
In short: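 Boyden Transwell migration (8 μm pores) of 95D cells, RPMI-1640 with 10% FBS versus serum-free medium; inhibition rate calculated.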

[5] = tested on: human umbilical vein endothelial cell HUVEC; assay: Lumen formation ability of HUVEC (Matrigel method); assay type: cell-based; settings: Final concentration 1 x 1.0*10^(−5) mol/L
In short: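 HUVEC at passage 3–5, cultured in M199 at 37° C under 5% CO2, were plated on Matrigel with compound. Spontaneous lumen formation was scored as an inhibition rate.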

lung cancer cell A549 = assay: Effects on the adhesive ability of lung cancer cell A549; assay type: cell-based, human; settings: Final concentration 1 x 1.0*10^(−5) mol/L
In short: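 A549 cells in 1640 medium with 10% FBS tested for adhesion to gelatin versus poly-lysine (PLL), with CCK8 used as read-out. Inhibition rate derived from the gelatin/PLL adhesion OD ratio of dosed cells relative to the undosed cell group.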

mice S180 sarcoma [6] = settings: mouse, in vivo, 60 mg/kg
Raf-1(truncated) = assay: Raf-1 inhibitor screening by chemoluminescence method; assay type: biochemical; settings: Final concentration 1 x 1.0*10^−5 mol/ml
Excerpt: 1. Inhibitory activity of the compound of the present invention on raf kinase
Raf-1 inhibitor screening by chemoluminescence method
Westernblot electrophoresis apparatus Rotaryshaker
Raf-1(truncated), Magnesium/ATP Cocktail, MEK1 unactive

mice S180 sarcoma [7] = assay: Experimental therapeutic action on S180 sarcoma mice; settings: for Tumor weight x ± SD: day 10; for Tumor growth inhibition rate (%): mice S180 sarcoma, 60 mg/kg orally for 9 days
[8] = tested on: human lung cancer A549 transplantation tumor; assay type: in vivo; settings: BALB/cA nude mice; 60 mg/kg, 6 times every week for 3 weeks; Sorafenib oral 60 mg/kg
In short: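 Female BALB/cA nude mice, 35-40 days old, bearing A549 human lung cancer transplants; 6 per treatment group, 12 saline controls. Compound given at 60 mg/kg, 6 times weekly for 3 weeks, then observed one week.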

[9] = tested on: human umbilical vein endothelial cell HUVEC; assay: Growth of human umbilical vein endothelial cell HUVEC by CCK8 method; assay type: cell-based; settings: Final concentration 1 x 1.0*10^(−5) mol/L
In short: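 HUVEC cells were grown in 1640 medium with 10% FBS, and growth was measured by the CCK8 method. OD values of drug and control wells were corrected by subtracting the blank-well OD.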

[10] = tested on: human liver cancer cell bel-7402 transplantation tumor; assay type: in vivo; settings: BALB/cA nude mice; 60 mg/kg, 6 times every week for 3 weeks; Sorafenib oral 60 mg/kg
In short: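 Female BALB/cA nude mice (35–40 days, 18–22 g) bearing Bel-7402 xenografts; 6 mice per treated group, 12 in saline controls. Compound dosed at 60 mg/kg, 6 times weekly for 3 weeks, followed by one week of observation; tumor inhibition rate scored against controls.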

[11] = Final concentration 1 x 1.0*10^(−5) mol/L

Molecule | Relative tumor reproduction rate T/C (%) on human renal carcinoma GCR-1 cell transplanted tumor model in nude mice [1] [%] | Inhibition rate, growth of human lung cancer cell A549 [2, 11] [%] | Relative tumor reproduction rate T/C (%) ([3]; 60 mg/kg) | RTV [3] | TV d0 [3] | TV d13 [3] | Inhibition rate, 95D cell strain migration [4] [%] | Inhibition rate, lumen formation ability of HUVEC [5] [%] | Inhibition rate, adhesion ability of human lung cancer cell A549 (lung cancer cell A549) [%] | Inhibition rate % on raf kinase (Raf-1(truncated)) [%] | Tumor weight x ± SD (mice S180 sarcoma [7]; 60 mg/kg ig for 9 days) [g] | Tumor growth inhibition rate (%) (mice S180 sarcoma [7]) | Relative tumor reproduction rate T/C (%) on human lung cancer A549 transplantation tumor in nude mice [8] [%] | Inhibition rate, growth of HUVEC cell [9] [%] | Relative tumor reproduction rate T/C (%) on human liver cancer cell bel-7402 transplantation tumor model in nude mice [10] [%] | Relative tumor reproduction rate T/C (%) [3] [%] | other results
CNC(=O)c1cc(Oc2ccc(NC(=O)Nc3ccc(Br)c(C(F)(F)F)c3)cc2)c2cc(OC)ccc2n1 [Compound 3] | 31.3 | 69.67 | 47.34 | 2.40 ± 0.67 | 133 ± 18 | 322 ± 129 | 96.64 | 76.61 | 79.66 | 56.3 | 0.75 ± 0.36 | 53.4 | 37.2 | 27.67 | 30.1 |  | Weight (g) Start (mice S180 sarcoma [6]): 18.0 ± 1.1 g
N-(4-chloro-3-(trifluoromethyl)phenyl)-N′-(4-(2-(N-methylaminoformoxyl)-4-(6-methoxyquinolinyl)oxy))phenyl)urea [Compound 1] | 30.5 | 50.20 | 55.42 | 2.81 ± 1.05 | 128 ± 34 | 359 ± 108 | 80.21 | 72.22 | 60.22 | 75.0 | 0.99 ± 0.20 | 38.5 | 38.7 | 9.20 | 33.7 |  | Weight (g) d0 ([3]; nude mouse body weight d0, 60 mg/kg): 19.5 ± 1.0 g; Weight (g) d13 ([3]; nude mouse body weight d13, 60 mg/kg ig 9 times): 20.5 ± 1.1 g; Weight (g) Start (mice S180 sarcoma [7]; mouse body weight at start, 60 mg/kg ig): 18.7 ± 1.9 g; Weight (g) Final (mice S180 sarcoma [7]; mouse body weight final, 60 mg/kg ig for 9 days): 22.3 ± 1.3 g
N-(4-chloro-3-(trifluoromethyl)phenyl)-N′-(4-(2-(N-methylaminoformoxyl)-4-(7 fluoroquinazolinyl)oxy)phenyl)urea [Compound 4] | 9.6 | 91.12 |  |  |  |  | 96.38 | 86.77 | 89.71 | 82.2 |  | 50.1 | 12.3 | 5.12 | 15.3 | 33.15 | 
N-(4-chloro-3-(trifluoromethyl)phenyl)-N′-(4-(2-(N-methylaminoformoxyl)-4-(7-amino-isoquinolyl)oxy)phenyl)urea [Compound 10] | 27.1 | 74.50 |  |  |  |  | 61.43 | 50.34 | 64.57 | 3.5 |  | 55.2 | 30.1 | 14.50 | 28.1 | 78.9 | 
N-(4-fluoro-3-(trifluoromethyl)phenyl)-N′-(4-(4-(2-methyl-pyrryl)oxy)phenyl)urea [Compound 29] | 12.8 |  |  |  |  |  | 61.44 | 86.43 | 91.40 | 85.3 |  | 14.2 | 14.7 | 21.40 | 16.2 | 78.3 | Inhibition rate, growth of human lung cancer cell A549 [2]: 86.42%
